# Results published in patent publication US12528774B2, “Thiosemicarbazone compounds and uses thereof” (The Regents of the University of California, priority 2019, dated 2026).
# Legend:
# [1] = test system: electron transport chain complexes of isolated mitochondria; assay: Electron flow assay in isolated mitochondria; format: biochemical, mouse; conditions: HCT-13 + Cu(II) 20 μM
# Method: FIG. 3A: Mito Stress Test of MIAPACA2 PDAC cells treated with HCT13 (25 nM)+Cu(II) (20 μM) for 24h. FIG. 3B: electron flow assay in isolated mitochondria treated with HCT-13 (100 nM)+Cu(II) (20 μM) for 1h. FIG. 3C: viability of 143 BTK parental (wild type, WT) and ρ0 cells after 48h of the indicated HCT13 concentration+Cu(II) (20 μM) treatment, assessed with Trypan Blue Staining. FIG. 3D: 48h cell cycle histogram and plots of S-phase arrest plots in 143 BTK WT and 143 BTK ρ0 cells at 24, 48 and 72h following treatment with indicated concentrations of HCT13+Cu(II)(20 μM). (mean±SD, n=2, one-way ANOVA corrected for multiple comparisons by Bonferroni adjustment, * P<0.05; ** P<0.01; *** P<0.001). […]
# Mito Stress Test and Electron Flow Assay: All oxygen consumption rate (OCR) was measured using a XF24 Analyzer (Agilent) and normalized per μg protein. […] OCR was measured before (total respiration) and after the sequential injection of 1 μM oligomycin (complex V inhibitor), 0.75 μM FCCP (uncoupler), and 1 μM of rotenone and myxothiazol (complex I and III inhibitors, respectively), as described previously (1). Mitochondrial respiration was calculated by subtracting the non-mitochondrial respiration left after rotenone and myxothiazol injection. […] OCR was measured before and after the sequential injections described in the previous paragraph. […]
# [2] = test system: 143 BTK ρ0 cells; assay: Viability (trypan blue) and cell cycle in 143 BTK ρ0 cells; format: cell-based; conditions: HCT13 + 20 μM Cu(II), 48 hours
# Method: FIG. 3A: Mito Stress Test of MIAPACA2 PDAC cells treated with HCT13 (25 nM)+Cu(II) (20 μM) for 24h. FIG. 3B: electron flow assay in isolated mitochondria treated with HCT-13 (100 nM)+Cu(II) (20 μM) for 1h. FIG. 3C: viability of 143 BTK parental (wild type, WT) and ρ0 cells after 48h of the indicated HCT13 concentration+Cu(II) (20 μM) treatment, assessed with Trypan Blue Staining. FIG. 3D: 48h cell cycle histogram and plots of S-phase arrest plots in 143 BTK WT and 143 BTK ρ0 cells at 24, 48 and 72h following treatment with indicated concentrations of HCT13+Cu(II)(20 μM). (mean±SD, n=2, one-way ANOVA corrected for multiple comparisons by Bonferroni adjustment, * P<0.05; ** P<0.01; *** P<0.001).
# Another HCT compound, Dp44mT, was reported to increase AMPK expression and induce ROS, although its cytotoxicity was not attributed to the functionality of the mitochondria. (Ref 50). […] Both 143 BTK ρ0 and parental (wild type, WT) cells were treated with HCT13+20 μM Cu(II) for 48 hours, after which cell viability was determined through trypan blue staining (FIG. 3C).
# Viability/Apoptosis assay: Viable cells were measured by Trypan blue staining using vi-cell counter (Beckman Coulter, CA, USA). […]
# Cell cycle: Cell cycle was assessed using Propidium iodide staining at indicated timepoints. […]
smiles,measurement,setting,value
"CN(C)C(=S)N/N=C/c1nccc2cc(F)ccc12 (mixture of isomers) [HCT13, (E)-2-((6-Fluoroisoquinolin-1-yl)methylene)-N,N-dimethylhydrazine-1-carbothioamide and (Z)-2-((6-Fluoroisoquinolin-1-yl)methylene)-N,N-dimethylhydrazine-1-carbothioamide]",mitochondrial ETC complex activity,[1],decreased activity of complexes I and II
same,mitochondrial ETC complex activity,[1]; listed as HCT-13,ETC Complex 1 was most dramatically affected
same,sensitivity of ρ0 cells compared to WT (viability),[2],significantly less sensitive
